Patent US20220133652A1, “A FORMULATION FOR IMPROVING SEIZURE CONTROL” (ZOGENIX INTERNATIONAL LIMITED, priority 2019, published 2022)

Legend:
[1] = Serum samples of patient analyzed for fenfluramine and norfenfluramine; format: in vivo, human
Description: (§1) Fenfluramine was administered as an oral solution via a gastric feeding tube at an initial dose of 0.5 mg/kg/day for about 5 days. An echocardiogram was performed to screen for cardiac valve abnormalities (CVD) and/or pulmonary arterial hypertension (PAH) and to establish a baseline for subsequent echocardiograms which will be used to monitor the patient's cardiovascular status over the treatment period, and repeated approximately every 3 months over the next year of continuing fenfluramine administration. […] After 4 days of fenfluramine administration Patient was able to be weaned from general anesthesia without return to seizures and the immediate crisis resolved, however, seizures began to recur after 3 more days without anesthesia and the fenfluramine dosage was adjusted up to 0.8 mg/kg/day and bolus doses of valproate or phenobarbital were administered as needed. The treating physician assessed the patient as having emerged from the SRSE crisis about 2 weeks after initiation of fenfluramine therapy. The patient remains on fenfluramine, along with levetiracetam, clobazam and valproate, and was discharged from the ICU about 1 month (approximately 32 days) after initiation of fenfluramine therapy.

[2] = tested on: super-refractory status epilepticus; assay: Case study: fenfluramine in patient in medically-induced coma, weaning from general anesthesia; format: in vivo, human
Description: Fenfluramine was tested on a patient with an established diagnosis Dravet Syndrome (DS) (February, 2008) and having undergone confirmatory genetic testing, they were hospitalized in November 2018 and had been in an intensive care unit (ICU) under general anesthesia for management of super-refractory status epilepticus. At the beginning of the testing period, they had been in the ICU for around 32 days, and multiple attempts to wean them from anesthetic agents (pentobarbital and ketamine) were unsuccessful, with repetitive and then continuous tonic seizures recurring within hours. Table 1, below, provides a complete list of all anti-epileptic drugs (AEDs) assayed in managing the patient's seizures. Some had been determined to lack efficacy, while those marked as current were still being administered.
After these other AEDs failed, the attending physician tested fenfluramine, beginning on Dec. 19, 2018. A baseline echocardiogram was taken with the patient still in ICU setting. The patient's medications (beyond anesthetic agents) at that time included valproic acid, levetiracetam, clobazam, phenobarbital, ketosis, and VNS therapy, and felbamate was most recently added after failure of the last attempt to withdraw anesthesia.
as §1

[3] = tested on: self-induced photosensitive seizures; conditions: four cases; cited from earlier work
refractory epilepsy = conditions: dose of 0.5 to 1 mg/kg/day, children; cited from earlier work
[4] = tested on: pattern sensitivity-induced seizures; conditions: one child; cited from earlier work
[5] = reason for withdrawal from the US market in 1997; cited from earlier work

Compound | Conc. in serum ([1]; SUB 001, Visit 1, Timepoint 99, SAE 8 Jan. 2019, fenfluramine oral solution via gastric feeding tube) [ng/mL] | Conc. in serum ([1]; SUB 001, Visit 2, Timepoint 99, SAE 9 Jan. 2019, fenfluramine oral solution via gastric feeding tube) [ng/mL] | Conc. in serum ([1]; SUB 001, Visit 3, Timepoint 99, SAE 10 Jan. 2019, fenfluramine oral solution via gastric feeding tube) [ng/mL] | Duration of administration after which patient was weaned from general anesthesia without return to seizures ([2]; 0.5 mg/kg/day oral solution via gastric feeding tube, adjunctive to other AEDs, one patient) [days] | Time after initiation of therapy until patient assessed as emerged from the SRSE crisis ([2]; 0.5 then 0.8 mg/kg/day, bolus valproate or phenobarbital as needed) | Time without anesthesia until seizures began to recur ([2]; after weaning, at 0.5 mg/kg/day, dose then adjusted up to 0.8 mg/kg/day) [days] | Seizure control in patients with SRSE ([2]; conclusion from the case of patient) | Time after initiation of therapy until discharge from the ICU ([2]; patient remains on fenfluramine with levetiracetam, clobazam and valproate) | concentration at 20 days after start of dosing ([1]; human, 0.8 mg/kg/day, SUB 001, Visit 1, Timepoint 99, SAE 8 Jan. 2019, fenfluramine oral solution via gastric feeding tube, read-out: Conc. in serum) [ng/mL] | concentration at 21 days after start of dosing ([1]; human, 0.8 mg/kg/day, SUB 001, Visit 2, Timepoint 99, SAE 9 Jan. 2019, fenfluramine oral solution via gastric feeding tube, read-out: Conc. in serum) [ng/mL] | concentration at 22 days after start of dosing ([1]; human, 0.8 mg/kg/day, SUB 001, Visit 3, Timepoint 99, SAE 10 Jan. 2019, fenfluramine oral solution via gastric feeding tube, read-out: Conc. in serum) [ng/mL] | Response of self-induced photosensitive seizures to treatment [3] | Effect on number of seizures (refractory epilepsy) | Effect on self-induced seizures [4] | Adverse effects associated with use [5]
CC(N)Cc1cccc(C(F)(F)F)c1 (stereo not drawn) [Norfenfluramine] | 23.8 | 23.1 | 27.6 | – | – | – | – | – | – | – | – | – | – | – | –
CCNC(C)Cc1cccc(C(F)(F)F)c1 (racemic) [Fenfluramine, (RS)-N-ethyl-1-[3-(trifluoromethyl)phenyl]propan-2-amine] | – | – | – | 4 | about 2 weeks | 3 | improved seizure control | approximately 32 days | 17.7 | 17.8 | 22.2 | responded to treatment | reduction in the number of seizures | successfully terminated these self-induced seizures | cardiac valvular fibrosis and pulmonary hypertension
